Common to all, as to type: cell-based
The subject of experiment [1] is STAT5 phosphorylation in CD4+ Tconv cells. In words: STAT5 phosphorylation in CD4+ Tconv cells, human PBMC assay by FACS. The text has this:
(§1) Single amino acid substitutions were introduced to IL-2 at positions corresponding to amino acids interacting with receptor subunit(s) β or γ or βγ. These substitutions were aimed to reduce IL-2 signaling capacity through the intermediate affinity IL-2Rβγ complex and confer signaling specificity from the high affinity IL-2Rαβγ. IL-2 variants containing single amino acid substitutions were examined for their ability to differentially stimulate STAT5 phosphorylation in CD4 positive Treg and Tconv cells. STAT5 is known to be involved in the downstream signaling cascade upon IL-2 binding to the transmembrane IL-2 receptors. The phosphorylation of STAT5 in defined lymphocyte subpopulations was measured using fresh human peripheral blood mononuclear cells (PBMC) and the forkhead transcription factor FOXP3 was used to identify the Treg population in FACS analysis.
(§2) Briefly, human PBMC were isolated by Ficoll-Hypaque centrifugation from the buffy coat of a healthy donor. PBMC were starved in serum-free MACS buffer at 4° C. for 1 hour. 2×10^5 PBMC were then treated with serial dilutions of test compounds for 30 min at 37° C. Cells were fixed and permeabilized with Foxp3/Transcription Factor Staining Buffer Set (EBIO) by incubating with 1× Foxp3 fixation/permeabilization working solution for 30 minutes and washing with 1× permeabilization buffer. Cells were additionally fixed with Cytofix buffer and permeabilized with Perm Buffer III (BD Biosciences) and then washed. After blocking Fc receptors by adding human TruStain FcX (1:50 dilution), cells were stained with a mixture of anti-CD25-PE, anti-FOXP3-APC, anti-pSTAT5-FITC, and anti-CD4-PerCP-Cy5.5 antibodies at concentrations recommended by the manufacturer for 45 minutes at room temperature. Cells were collected by centrifugation, washed, resuspended in FACS buffer, and analyzed by flow cytometry. The flow cytometry data was gated into CD4+/Foxp3+/CD25^high and CD4+/Foxp3−/CD25^low groups for the Treg and CD4 conventional T cell subsets, respectively. Data are expressed as a percent of pStat5 positive cells in gated population.
Background: In flow cytometry, cells or beads pass a laser one at a time.

Experiment [2] deals with CD4+ Treg vs CD4+ Tconv cells. The experiment is described as follows: STAT5 phosphorylation, selectivity / activity profile Treg versus CD4+ Tconv cells, human PBMC.
From the text: as §1, §2
The S125I substitution was then introduced into wild-type IL-2 or IL-2 variants that already harbored 1 or 2 mutations targeting receptor subunit(s) β or γ or βγ. The resulting IL-2 variants containing isoleucine at position 125 were tested for their ability to stimulate STAT5 phosphorylation in Treg and Tconv cells in comparison with their respective serine counterparts at position 125. Table 7 lists the potency and selectivity of IL-2 variants in Treg cells. The two molecules in the same row of Table 7 share the same other amino acid substitution(s) and differ only at position 125 with either serine or isoleucine.

In experiment [3] the test system is STAT5 phosphorylation in CD4+ Treg cells. In words: STAT5 phosphorylation in CD4+ Treg cells, human PBMC assay by FACS.
From the text: as §1, §2

Here are results for 31 substances from patent US20220170028A1, “NOVEL INTERLEUKIN-2 VARIANTS AND BIFUNCTIONAL FUSION MOLECULES THEREOF” (Cugene Inc, priority 2019, published 2022).

Entries after “also recorded” stand apart in the source; their conditions may differ.

As to “P-0374: IL-2 L19R Fc fusion, SEQ ID NO: 83”, the “STAT5 phosphorylation activity in CD4+ Tconv cells (in words)” value in experiment [1] is given as “largely retained the biological activity”. Take “P-0695: Tocilizumab IL-2 L19H/S125I/Q126H bivalent fusion, SEQ ID NOs 253 + 309”: the “activity profile / selectivity window Treg over CD4+ Tconv (in words)” value in experiment [2] is “did not impair the protein activity nor improve the Treg selectivity”. As for “P-0367: IL-2 D20S Fc fusion, SEQ ID NO: 78”, the “STAT5 phosphorylation activity in CD4+ Tconv cells (in words)” value in experiment [1] is “largely diminished or abolished”. Besides, the “STAT5 phosphorylation activity in Treg cells (in words)” value in experiment [3] is “ability to induce STAT5 phosphorylation”. With “P-0588: Tocilizumab IL-2 D20S/S125I bivalent fusion, SEQ ID NOs 253 + 257”, the “STAT5 phosphorylation activity in Treg cells (in words)” value in experiment [3] is reported as “reduced potency”. As for “P-0448: IL-2 L19Q/Q126E Fc fusion, SEQ ID NO: 174”, the “activity profile / selectivity window Treg over CD4+ Tconv (in words)” value in experiment [2] is given as “on par with Benchmark-2”. For the same substance, the “STAT5 phosphorylation activity in CD4+ Tconv cells (in words)” value in experiment [1] is on record as “largely abolished”. In addition, in experiment [3], the “STAT5 phosphorylation activity in Treg cells (in words)” value is “significant potency”. Take “P-0860: IL-2 L19D/S125I/Q126E Fc fusion, SEQ ID NO: 300”: in experiment [3], the “STAT5 phosphorylation activity in Treg cells (in words)” value was “different levels of potency attenuation” and the “maximum possible effect / signaling amplitude of STAT5 phosphorylation in Treg cells” value is listed as “strikingly lower”. In the case of “P-0694: Tocilizumab IL-2 L19H/S125I/Q126D bivalent fusion, SEQ ID NOs 253 + 308”, in experiment [2], the “activity profile / selectivity window Treg over CD4+ Tconv (in words)” value is listed as “wide selectivity window”. In addition, the “STAT5 phosphorylation activity in CD4+ Tconv cells (in words)” value in experiment [1] is “essentially abolished”. Further, in experiment [3], the “STAT5 phosphorylation activity in Treg cells (in words)” value was “reduced potency”. As to “P-0699: Tocilizumab IL-2 L19H/S125I/Q126S bivalent fusion, SEQ ID NOs 253 + 312”, the “activity profile / selectivity window Treg over CD4+ Tconv (in words)” value in experiment [2] is reported as “did not impair the protein activity nor improve the Treg selectivity”. Consider “P-0559: Tocilizumab IL-2 D20Q/S125I bivalent fusion, SEQ ID NOs 253 + 265”, for which the “activity profile / selectivity window Treg over CD4+ Tconv (in words)” value in experiment [2] was “selective activation of Treg cells over CD4+ Tconv cells”. In experiment [1], the “STAT5 phosphorylation activity in CD4+ Tconv cells (in words)” value is on record as “essentially abolished”. Further, the “STAT5 phosphorylation activity in Treg cells (in words)” value in experiment [3] is listed as “reduced potency”. Turning to “P-0536: Tocilizumab IL-2 L19H/S125I/Q126E bivalent fusion, SEQ ID NOs 253 + 255”, the “STAT5 phosphorylation activity in Treg cells (in words)” value in experiment [3] is reported as “slightly higher activity than its monomeric equivalent P-0546”. “P-0303: IL-2 Q126E Fc fusion, SEQ ID NO: 90”: the “activity profile / selectivity window Treg over CD4+ Tconv (in words)” value in experiment [2] was “modestly improved selective window”. The “STAT5 phosphorylation activity in Treg cells (in words)” value in experiment [3] is recorded as “minimally impacted the pSTAT5 activation potency”.

For the substance “P-0423: IL-2 L19Q Fc fusion, SEQ ID NO: 152”, the “STAT5 phosphorylation activity in CD4+ Tconv cells (in words)” value in experiment [1] is recorded as “largely retained the biological activity”.

As to “P-0449: IL-2 L19S/Q126E Fc fusion, SEQ ID NO: 175”, in experiment [2], the “activity profile / selectivity window Treg over CD4+ Tconv (in words)” value is “on par with Benchmark-2”. Further, in experiment [1], the “STAT5 phosphorylation activity in CD4+ Tconv cells (in words)” value is on record as “largely abolished”. For the same substance, in experiment [3], the “STAT5 phosphorylation activity in Treg cells (in words)” value is “significant potency”. “P-0366: IL-2 D20Q Fc fusion, SEQ ID NO: 77”: the “STAT5 phosphorylation activity in CD4+ Tconv cells (in words)” value in experiment [1] was “largely diminished or abolished”. For the same substance, the “STAT5 phosphorylation activity in Treg cells (in words)” value in experiment [3] is “ability to induce STAT5 phosphorylation”.

“P-0480: IL-2 L19H/Q126K Fc fusion, SEQ ID NO: 189”: the “Treg Selectivity” value in experiment [2] (Serine-125 constructs) is “Yes”. Take “P-0698: Tocilizumab IL-2 L19H/S125I/Q126R bivalent fusion, SEQ ID NOs 253 + 311”: the “activity profile / selectivity window Treg over CD4+ Tconv (in words)” value in experiment [2] is “did not impair the protein activity nor improve the Treg selectivity”. For “P-0417: IL-2 L19N/Q126E Fc fusion, SEQ ID NO: 103”, in experiment [3], the “STAT5 phosphorylation activity in Treg cells (in words)” value is on record as “pronounced reduced potency”.

As to “P-0368: IL-2 D20Y Fc fusion, SEQ ID NO: 79”, the “STAT5 phosphorylation activity in CD4+ Tconv cells (in words)” value in experiment [1] is reported as “no biological activity”. The “STAT5 phosphorylation activity in Treg cells (in words)” value in experiment [3] was “no biological activity”.

Regarding “P-0859: IL-2 L19N/S125I/Q126E Fc fusion, SEQ ID NO: 306”, in experiment [3], the “STAT5 phosphorylation activity in Treg cells (in words)” value is given as “different levels of potency attenuation” and the “maximum possible effect / signaling amplitude of STAT5 phosphorylation in Treg cells” value is “moderately reduced”. In the case of “P-0322: IL-2 D20T/Q126E Fc fusion, SEQ ID NO: 99”, in experiment [3], the “STAT5 phosphorylation activity in Treg cells (in words)” value was “pronounced reduced potency”. Still for that read-out and setting: the result for “P-0862: Fc fusion, 5 amino acid N-terminal deletion of P-0511 IL-2 variant (Table 4H prints L19D), SEQ ID NO: 302” reads “fully retained potency”; that for “P-0863: Fc fusion, 7 amino acid N-terminal deletion of P-0511 IL-2 variant (Table 4H prints L19D), SEQ ID NO: 303”, “fully retained potency”. As for “P-0700: Tocilizumab IL-2 L19H/S125I/Q126T bivalent fusion, SEQ ID NOs 253 + 307”, in experiment [2], the “activity profile / selectivity window Treg over CD4+ Tconv (in words)” value is reported as “did not impair the protein activity nor improve the Treg selectivity”. Consider “P-0590: Tocilizumab IL-2 L19N/S125I/Q126E bivalent fusion, SEQ ID NOs 253 + 267”, for which, in experiment [3], the “STAT5 phosphorylation activity in Treg cells (in words)” value is listed as “reduced potency” and the “maximum possible effect / signaling amplitude of STAT5 phosphorylation in Treg cells” value is given as “lower signaling amplitude”.

“P-0474: IL-2 L19Y/Q22K Fc fusion, SEQ ID NO: 186”: the “STAT5 phosphorylation activity in CD4+ Tconv cells (in words)” value in experiment [1] is “varied significantly”. In experiment [3], the “STAT5 phosphorylation activity in Treg cells (in words)” value was “retained comparable potency”. On to “P-0373: IL-2 L19N Fc fusion, SEQ ID NO: 82”, for which the “activity profile / selectivity window Treg over CD4+ Tconv (in words)” value in experiment [2] is on record as “wide window for selective targeting of Treg subset; also recorded: some or significant biased selective window”. Moreover, in experiment [1], the “STAT5 phosphorylation activity in CD4+ Tconv cells (in words)” value is given as “reduced”. Take “P-0697: Tocilizumab IL-2 L19H/S125I/Q126N bivalent fusion, SEQ ID NOs 253 + 310”: in experiment [2], the “activity profile / selectivity window Treg over CD4+ Tconv (in words)” value is reported as “did not impair the protein activity nor improve the Treg selectivity”. For the substance “P-0464: IL-2 L19Y/Q126K Fc fusion, SEQ ID NO: 176”, the “STAT5 phosphorylation activity in CD4+ Tconv cells (in words)” value in experiment [1] is recorded as “varied significantly”. For the same substance, the “STAT5 phosphorylation activity in Treg cells (in words)” value in experiment [3] is reported as “retained comparable potency”. As for “P-0365: IL-2 D20N Fc fusion, SEQ ID NO: 76”, the “STAT5 phosphorylation activity in CD4+ Tconv cells (in words)” value in experiment [1] was “largely diminished or abolished”. In addition, in experiment [3], the “STAT5 phosphorylation activity in Treg cells (in words)” value is “ability to induce STAT5 phosphorylation”.

“P-0427: IL-2 L19S Fc fusion, SEQ ID NO: 156”: the “STAT5 phosphorylation activity in CD4+ Tconv cells (in words)” value in experiment [1] is on record as “largely retained the biological activity”. Turning to “P-0589: Tocilizumab IL-2 D20N/S125I bivalent fusion, SEQ ID NOs 253 + 258”, in experiment [3], the “STAT5 phosphorylation activity in Treg cells (in words)” value was “reduced potency”.
